Measured values reported in PMC9916978, “Enantioselective Human Serum Albumin Binding of Apremilast: Liquid Chromatographic, Fluorescence and Molecular Docking Study” (International Journal of Molecular Sciences, 2023).

Experiments:
Format in all cases: binding
[1] = biological target: T1, human serum albumin (HSA) (Homo sapiens, UniProt P02768); test: Retention on Chiral-HSA column (HPLC) with different organic modifiers; details: 25 °C
T1 construct: purchased Chiral Technologies Inc., a subsidiary of Daicel Chemical Industries Ltd
Method: In the next step, different organic modifiers in different percentages were tested. Columns with immobilized proteins, such as Chiral-HSA, are very susceptible to the type and percentage of the organic modifier, which can lead to changes in the tridimensional structure of the protein and can alter the secondary interactions between the analyte and the CSP [30, 31]. According to the instructions of the column manufacturer, the maximum usable organic modifier percentage in the mobile phase was 20% [32]. In our study, the effect of 2-propanol (IPA), 1-propanol (PROP), ethanol (EtOH), methanol (MeOH) and acetonitrile (ACN) on the retention factor (k) and selectivity (α) was investigated. The organic modifiers were used in five different percentages in 10 mM phosphate buffer adjusted to pH 7, using a flow rate of 0.7 mL/min, at 25 °C.
LC–UV analysis was carried out on an Agilent 1100 HPLC system consisting of a quaternary pump, an autosampler, a column compartment, and a DAD detector (Agilent Technologies, Waldbronn, Germany). ChemStation software (ver.: B04 03-SP2) was used for data analysis. UV detection was performed at 230 nm. The APR stock solution was prepared at 1 mg mL^−1 in MeOH, and further dilutions were made with water. An injection volume of 5 μL was used.
The retention factor (k) was calculated using the following equation:(5) k=tr−t0/to where tr is the retention time of the analyte, and t0 is the dead time, determined as the first peak appearance in the chromatogram.
(§1) The separation factor (α) was calculated as follows:(6) α=k2/k1 where k1 and k2 are the retention factors of the first- and second-eluting enantiomer, respectively. The k values were used to calculate the albumin-bound percentage (b%) using Equation (7) by zonal elution chromatography:(7) b%=k/1+k·100

[2] = biological target: T1, human serum albumin (HSA); test: van 't Hoff thermodynamic analysis on the Chiral-HSA column; details: 10 mM phosphate buffer/IPA 96/4 v/v%, 10–30 °C, transfer from mobile phase to HSA stationary phase
Method: The separation temperature is one of the main determinant factors that can affect selectivity, resolution, retention factor and even the elution order of enantiomers during HPLC enantioseparations. To investigate the effects of temperature and to gain a better understanding of the mechanistic aspects of the enantiodiscrimination process on the Chiral-HSA column, thermodynamic analysis was performed in a 10 mM phosphate buffer/IPA 96/4 v/v% mixture.
To understand the energetic interactions between the analytes and the stationary phase, the classical van ’t Hoff approach was applied assuming only enantioselective interaction sites on the stationary phase. However, it should be noted that it is more realistic if both enantioselective and non-enantioselective interactions are considered.
Van ’t Hoff plots were constructed according to Equation (1) by plotting the natural logarithm of the retention factor as a function of the inverse of the absolute temperature in the temperature range of 10–30 °C, with 5 °C increments (a higher temperature was not applied due to possible column damage) (1) lnk=[…]+ΔS^°/R+lnΦ where R stands for the universal gas constant, T is the temperature in Kelvin, and k is the retention factor of the individual enantiomers. ΔH° denotes the standard enthalpy, while ΔS° is the standard entropy change of transfer of the solute from the mobile phase to the stationary phase, and Φ is the phase ratio of the HSA column. If ΔH° is constant in the selected temperature range, a linear relationship is obtained between lnk and 1/T, with a slope of −ΔH°/R and an intercept of ΔS°/R + lnΦ. Since the value of the phase ratio is seldom known, ΔS°* values (ΔS°* = ΔS° + RlnΦ) are often used to compensate for the uncertainty in Φ [38, 39].
Similarly, the differences in the change of standard enthalpy Δ(ΔH°) and standard entropy Δ(ΔS°) for the two enantiomers moving from the mobile phase to the stationary phase were also calculated according to the modified van ’t Hoff equation:(2) lnα=−∆(∆H^°)/RT+∆(∆S^°)/R
The isoenantioselective temperatures (Tiso) were also calculated as the ratio between Δ(ΔH°) and Δ(ΔS°), according to Equation (3). Tiso represents the temperature at which the enthalpy contribution is compensated by the entropic term, which means that […] (Δ(ΔG°)) equals zero. The thermodynamic parameter Δ(ΔG°) provides information on the strength of binding between selector and selectant, with more negative values indicating a more efficient binding. Consequently, a value of Δ(ΔG°) = 0 means that there is no difference between the binding strength of the enantiomers; therefore, at Tiso, the two enantiomers co-elute, and no separation is achieved. (3) Tiso=∆(∆H^°)/∆(∆S^°) (4) ∆(∆G^°)=∆(∆H^°)−T∗∆(∆S^°)

[3] = biological target: T1, human serum albumin (HSA); test: Albumin-bound percentage by zonal elution chromatography on Chiral-HSA column, extrapolated to zero organic modifier; details: for Bound percentage (b%), Average + SD%: average over five organic modifiers
From the text: As it was observed, the decrease of the organic modifier percentage in the mobile phase caused an exponential increase in the retention times of both enantiomers. Therefore, for the calculations, the logarithm of the retention factors was plotted against the organic modifier proportion. With this conversion, a linear relationship was obtained, which could be easily extrapolated to zero for supposedly the best imitation of in vivo conditions. As the intercept of these linear equations, a k value is expressed that can be used to calculate the bound% according to Equation (7).
as §1

[4] = 1-PROP 2% in 10 mM phosphate buffer pH 7, 0.7 mL/min
[5] = 1-PROP 4% in 10 mM phosphate buffer pH 7, 0.7 mL/min
[6] = 1-PROP 6% in 10 mM phosphate buffer pH 7, 0.7 mL/min
[7] = 1-PROP 8% in 10 mM phosphate buffer pH 7, 0.7 mL/min
[8] = 1-PROP 10% in 10 mM phosphate buffer pH 7, 0.7 mL/min
[9] = ACN 2% in 10 mM phosphate buffer pH 7, 0.7 mL/min
[10] = ACN 4% in 10 mM phosphate buffer pH 7, 0.7 mL/min
[11] = ACN 6% in 10 mM phosphate buffer pH 7, 0.7 mL/min
[12] = ACN 8% in 10 mM phosphate buffer pH 7, 0.7 mL/min
[13] = ACN 10% in 10 mM phosphate buffer pH 7, 0.7 mL/min
[14] = EtOH 2% in 10 mM phosphate buffer pH 7, 0.7 mL/min
[15] = EtOH 4% in 10 mM phosphate buffer pH 7, 0.7 mL/min
[16] = EtOH 6% in 10 mM phosphate buffer pH 7, 0.7 mL/min
[17] = EtOH 8% in 10 mM phosphate buffer pH 7, 0.7 mL/min
[18] = EtOH 10% in 10 mM phosphate buffer pH 7, 0.7 mL/min
[19] = IPA 2% in 10 mM phosphate buffer pH 7, 0.7 mL/min
[20] = IPA 4% in 10 mM phosphate buffer pH 7, 0.7 mL/min
[21] = IPA 6% in 10 mM phosphate buffer pH 7, 0.7 mL/min
[22] = IPA 8% in 10 mM phosphate buffer pH 7, 0.7 mL/min
[23] = IPA 10% in 10 mM phosphate buffer pH 7, 0.7 mL/min
[24] = MeOH 2% in 10 mM phosphate buffer pH 7, 0.7 mL/min
[25] = MeOH 4% in 10 mM phosphate buffer pH 7, 0.7 mL/min
[26] = MeOH 6% in 10 mM phosphate buffer pH 7, 0.7 mL/min
[27] = MeOH 8% in 10 mM phosphate buffer pH 7, 0.7 mL/min
[28] = MeOH 10% in 10 mM phosphate buffer pH 7, 0.7 mL/min
[29] = extrapolation to zero percentage of 1-propanol
[30] = extrapolation to zero percentage of ACN
[31] = extrapolation to zero percentage of EtOH
[32] = extrapolation to zero percentage of IPA
[33] = extrapolation to zero percentage of MeOH

T1 sequence (P02768 25-609): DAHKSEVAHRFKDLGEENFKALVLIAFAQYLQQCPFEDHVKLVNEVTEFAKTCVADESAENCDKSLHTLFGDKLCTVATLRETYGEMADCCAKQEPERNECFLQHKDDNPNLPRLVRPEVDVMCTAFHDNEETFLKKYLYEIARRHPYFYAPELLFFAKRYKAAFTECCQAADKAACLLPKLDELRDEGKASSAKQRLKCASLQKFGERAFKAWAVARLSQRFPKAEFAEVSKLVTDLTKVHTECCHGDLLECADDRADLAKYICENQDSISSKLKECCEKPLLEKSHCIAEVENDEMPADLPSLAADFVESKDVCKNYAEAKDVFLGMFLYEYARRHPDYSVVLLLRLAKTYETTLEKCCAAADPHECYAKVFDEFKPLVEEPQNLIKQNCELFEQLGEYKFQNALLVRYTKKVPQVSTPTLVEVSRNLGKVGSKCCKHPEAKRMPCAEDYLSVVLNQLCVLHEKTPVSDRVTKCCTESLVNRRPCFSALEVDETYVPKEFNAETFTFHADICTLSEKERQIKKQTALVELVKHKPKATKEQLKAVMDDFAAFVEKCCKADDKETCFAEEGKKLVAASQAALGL

retention factor k [1, 4]	retention factor k [1, 5]	retention factor k [1, 6]	retention factor k [1, 7]	retention factor k [1, 8]	retention factor k [1, 9]	retention factor k [1, 10]	retention factor k [1, 11]	retention factor k [1, 12]	retention factor k [1, 13]	retention factor k [1, 14]	retention factor k [1, 15]	retention factor k [1, 16]	retention factor k [1, 17]	retention factor k [1, 18]	retention factor k [1, 19]	retention factor k [1, 20]	retention factor k [1, 21]	retention factor k [1, 22]	retention factor k [1, 23]	SMILES	also measured
8.99	5.96	4.19	1.99	1.32	7.56	3.98	2.80	2.03	1.42	8.72	4.93	3.33	2.83	2.66	8.04	5.00	3.01	2.26	1.45	CCOc1cc([C@H](CS(C)(=O)=O)N2C(=O)c3cccc(NC(C)=O)c3C2=O)ccc1OC [R-APR]	retention factor k [1, 24]: 13.05; retention factor k [1, 25]: 9.32; retention factor k [1, 26]: 6.05; retention factor k [1, 27]: 4.48; retention factor k [1, 28]: 3.72; Δ(Δ)G° [2]: -0.906 kcal/mol; Δ(Δ)H° [2]: -6.338 kcal/mol; Δ(Δ)S° [2]: −76.29 J/molK; Bound percentage (b%), Average + SD% [3]: 92.7 ± 1.5%; Bound percentage (b%) [3, 29]: 94.0%; Bound percentage (b%) [3, 30]: 91.3%; Bound percentage (b%) [3, 31]: 91.4%; Bound percentage (b%) [3, 32]: 92.1%; Bound percentage (b%) [3, 33]: 94.5%
13.98	8.04	5.20	2.25	1.32	10.05	4.90	3.09	2.03	1.42	13.84	6.52	4.12	3.20	2.94	13.48	7.62	3.76	2.56	1.45	CCOc1cc([C@@H](CS(C)(=O)=O)N2C(=O)c3cccc(NC(C)=O)c3C2=O)ccc1OC [S-APR, apremilast]	retention factor k [1, 24]: 19.00; retention factor k [1, 25]: 15.27; retention factor k [1, 26]: 8.07; retention factor k [1, 27]: 5.32; retention factor k [1, 28]: 3.98; Δ(Δ)G° [2]: -1.06 kcal/mol; Δ(Δ)H° [2]: -7.237 kcal/mol; Δ(Δ)S° [2]: −86.78 J/molK; Bound percentage (b%), Average + SD% [3]: 95.5 ± 1.3%; Bound percentage (b%) [3, 29]: 96.4%; Bound percentage (b%) [3, 30]: 93.7%; Bound percentage (b%) [3, 31]: 94.8%; Bound percentage (b%) [3, 32]: 95.7%; Bound percentage (b%) [3, 33]: 96.8%
